{"source": "ChEMBL document CHEMBL1138076", "about": "“Synthesis and biological evaluation of lisofylline (LSF) analogs as a potential treatment for Type 1 diabetes” (Bioorg Med Chem Lett, 2006)", "key": {"[1]": {"experiment": "Half life in human liver", "format": "ADME, organism-based"}, "[2]": {"test_system": "INS1", "experiment": "Secretion of insulin in INS1 cells at 20 uM", "format": "functional, cell-based", "conditions": "Rattus norvegicus"}, "[3]": {"test_system": "Pancreatic beta cell", "experiment": "Protection of cytokine-induced death of pancreatic beta cells at 0.1 uM", "format": "functional, cell-based", "conditions": "Mus musculus"}, "[4]": {"experiment": "Stability in human liver microsomes at […] at pH 7.4", "format": "ADME, Microsome", "conditions": "read-out: Stability"}}, "note": "Activity calls are given as the source filed them. The calls are words filed in the database; no cut-off is given here.", "data": [{"compound": "C[C@@H](O)CCCCn1c(=O)c2c(ncn2C)n(C)c1=O", "note": "[LISOFYLLINE]", "values": [{"measurement": "half-life", "setting": "[1]", "result": "< 3", "unit": "min"}, {"measurement": "Activity", "setting": "[2]", "result": "Active"}, {"measurement": "Activity", "setting": "[3]", "result": "Active"}]}, {"compound": "C[C@@H](O)CCCCOc1nn(CCCC[C@@H](C)O)c(=O)c2ccccc12", "values": [{"measurement": "remaining", "setting": "[4]", "result": 75, "unit": "%"}, {"measurement": "Activity", "setting": "[2]", "result": "Active"}, {"measurement": "Activity", "setting": "[3]", "result": "Active"}]}, {"compound": "CC(C)NCC(O)COc1cccc2ccccc12", "note": "(configuration not stated) [PROPRANOLOL]", "values": [{"measurement": "remaining", "setting": "[4]", "result": 34, "unit": "%"}]}, {"compound": "C[C@]12CC[C@H]3[C@@H](CCC4=CC(=O)CC[C@@]43C)[C@@H]1CC[C@@H]2O", "note": "[TESTOSTERONE]", "values": [{"measurement": "remaining", "setting": "[4]", "result": 9, "unit": "%"}]}, {"compound": "Cc1cnc2n(C)c(=O)n(CCCC[C@@H](C)O)c(=O)n12", "values": [{"measurement": "remaining", "setting": "[4]", "result": 82, "unit": "%"}, {"measurement": "Activity", "setting": "[2]", "result": "Active"}, {"measurement": "Activity", "setting": "[3]", "result": "Active"}]}, {"compound": "CC(=O)CC(c1ccccc1)c1c(O)c2ccccc2oc1=O", "note": "(configuration not stated) [WARFARIN]", "values": [{"measurement": "remaining", "setting": "[4]", "result": 105, "unit": "%"}]}]}
